Inconclusive results are not listed. The source made the active and inactive calls.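 How the source made its calls: active means fitted curve crosses a set inhibition level at a dose up to twice the top tested dose; inconclusive means flat curve with moderate inhibition, or an unreliable curve fit; inactive means the rest, including signal rising instead of falling.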
Legend:
[1] = test system: HEK293 LMP1 TES2 NF-kB luciferase reporter, 16 h; experiment: inhibitors of TNFa-stimulated NF-kB luciferase reporter, dose response, selectivity assay for EBV LMP1 NF-kB inhibitor project, HEK293 LMP1 reporter cells, dry powder, set 2 (AID 624369)
[2] = as above; settings: HEK293 LMP1 TES2 NF-kB luciferase reporter, 16 h

| SMILES | activity change, negative = inhibition ([2]; at 35 µM (top of the series)) | also measured |
| --- | --- | --- |
| O=C(C[C@@H]1C[C@@H]2c3cc(NC(=O)c4ccc5c(c4)OCO5)ccc3O[C@@H]2[C@@H](CO)O1)NCc1ccc(Oc2ccccc2)cc1 |  | AC35 [1]: 14.2 µM |
| CC(=O)N(C)C[C@@H]1Oc2cc(C#Cc3ccc(F)cc3)ccc2S(=O)(=O)N([C@H](C)CO)C[C@H]1C |  | AC35 [1]: 34 µM |
| O=C(C[C@@H]1CC[C@@H]2[C@H](COC[C@H](O)CN2Cc2ccc3c(c2)OCO3)O1)Nc1ccc(-c2ccccc2)cc1 |  | AC35 [1]: 10.7 µM |
| CN(C)c1ccc2c(c1)[C@@H]1C[C@@H](CC(=O)NCc3ccc(Oc4ccccc4)cc3)O[C@@H](CO)[C@@H]1O2 | -31.8% (inactive) |  |
| CO[C@H]1CN(C)C(=O)c2ccc(NC(=O)C3CC3)cc2OC[C@H](C)N(C(=O)c2ccccn2)C[C@H]1C | -5.44% (inactive) |  |
| COc1ccccc1CNC(=O)C[C@H]1C[C@@H]2c3cc(NC(=O)CN(C)C)ccc3O[C@@H]2[C@@H](CO)O1 | -0.186% (inactive) |  |
| O=C(Cc1ccccn1)NCC[C@@H]1CC[C@@H](NC(=O)Nc2ccc(Cl)cc2)[C@H](CO)O1 | 1.95% (inactive) |  |
| COc1cccc(S(=O)(=O)N(C)C[C@@H]2Oc3cc(C4=CCCCC4)ccc3S(=O)(=O)N([C@@H](C)CO)C[C@H]2C)c1 | -6.23% (inactive) |  |
| CN(C)c1ccc2c(c1)[C@@H]1C[C@H](CC(=O)NCc3ccc(Oc4ccccc4)cc3)O[C@@H](CO)[C@@H]1O2 |  | AC35 [1]: 21.7 µM |
| CO[C@H](CN(C)S(=O)(=O)c1cccc(Cl)c1)[C@@H](C)CN([C@H](C)CO)S(=O)(=O)c1ccc(Cl)cc1 | -1.32% (inactive) |  |
| O=C(C[C@H]1C[C@@H]2c3cc(NS(=O)(=O)c4ccc(F)cc4)ccc3O[C@@H]2[C@@H](CO)O1)NCc1ccc(Oc2ccccc2)cc1 |  | AC35 [1]: 16.7 µM |
| O=C(Cc1ccccn1)NCC[C@@H]1CC[C@H](NC(=O)Nc2ccc(Cl)cc2)[C@H](CO)O1 | 1.35% (inactive) |  |
| C[C@@H]1CN([C@@H](C)CO)C(=O)Cc2cc(NC(=O)Cc3ccccc3)ccc2O[C@@H]1CN(C)Cc1ccc(C(F)(F)F)cc1 | 26.6% (inactive) |  |
| O=C(Cc1ccccn1)NCC[C@H]1CC[C@H](NC(=O)Nc2ccc(Cl)cc2)[C@H](CO)O1 | -3.5% (inactive) |  |
| Cc1noc(C)c1S(=O)(=O)Nc1ccc2c(c1)C(=O)N([C@H](C)CO)C[C@H](C)[C@H](CN(C)Cc1ccc(C(F)(F)F)cc1)OCCCC[C@@H](C)O2 | 62.1% (inactive) |  |
| C[C@@H]1CN([C@H](C)CO)C(=O)c2c(c3ccccc3n2C)-c2ccccc2CO[C@H]1CN(C)C(=O)Nc1ccc(F)cc1 | 30% (inactive) |  |

| SMILES | activity change, negative = inhibition ([2]; at 35 µM (top of the series)) | also measured |
| --- | --- | --- |
| C[C@@H]1CN([C@H](C)CO)C(=O)c2c(c3ccccc3n2C)-c2ccccc2CO[C@@H]1CN(C)C(=O)Nc1ccc(F)cc1 | -1.47% (inactive) |  |
| COc1cccc(S(=O)(=O)N(C)C[C@@H]2Oc3cc(C4=CCCCC4)ccc3S(=O)(=O)N([C@H](C)CO)C[C@H]2C)c1 | -5.06% (inactive) |  |
| C[C@H](CO)N1C[C@H](C)[C@H](CN(C)Cc2ccc(Oc3ccccc3)cc2)Oc2ccc(NC(=O)CCCN(C)C)cc2C1=O | 20.6% (inactive) |  |
| COc1cccc(S(=O)(=O)N(C)C[C@H]2Oc3cc(C4=CCCCC4)ccc3S(=O)(=O)N([C@H](C)CO)C[C@H]2C)c1 | 26.9% (inactive) |  |
| O=C(C[C@@H]1C[C@@H]2c3cc(NS(=O)(=O)c4ccc(F)cc4)ccc3O[C@@H]2[C@H](CO)O1)NC1CCCCC1 | 12.6% (inactive) |  |
| C[C@H](CO)N1C[C@H](C)[C@H](CN(C)C(=O)NC2CCCCC2)Oc2cc(/C=C/c3ccccc3)ccc2S1(=O)=O | -10.3% (inactive) |  |
| COC(=O)C[C@@H]1C[C@@H]2c3cc(NC(=O)CN(C)C)ccc3O[C@@H]2[C@@H](CO)O1 | 4.43% (inactive) |  |
| COc1ccccc1C(=O)Nc1ccc2c(c1)C(=O)N(C)[C@@H]1CC[C@H](CC(=O)NCCc3ccncc3)O[C@H]1CO2 | -5.47% (inactive) |  |
| C[C@H](NC(=O)C[C@H]1C=C[C@@H](NC(=O)Cc2ccccn2)[C@H](CO)O1)c1ccccc1 | -0.458% (inactive) |  |
| CS(=O)(=O)Nc1ccc2c(c1)[C@H]1C[C@@H](CC(=O)NCC3CC3)O[C@@H](CO)[C@H]1O2 | -2.86% (inactive) |  |
| O=C(Nc1ccc(C(F)(F)F)cc1)Nc1ccc2c(c1)[C@H]1C[C@@H](CC(=O)N3CCc4ccccc4C3)O[C@@H](CO)[C@H]1O2 | 0.365% (inactive) |  |
| CO[C@@H]1CN(C)C(=O)c2ccc(NC(C)=O)cc2OC[C@@H](C)N(Cc2ccccc2F)C[C@H]1C | 3.06% (inactive) |  |
| C[C@@H](NC(=O)C[C@H]1C=C[C@@H](NC(=O)Cc2ccccn2)[C@H](CO)O1)c1ccccc1 | -3.95% (inactive) |  |
| C[C@H](NC(=O)C[C@@H]1C=C[C@H](NC(=O)Cc2ccccn2)[C@@H](CO)O1)c1ccccc1 | -2.15% (inactive) |  |
| C[C@@H](NC(=O)C[C@H]1C=C[C@@H](NC(=O)Cc2ccccn2)[C@@H](CO)O1)c1ccccc1 | -2.43% (inactive) |  |
| C[C@@H]1CN([C@H](C)CO)C(=O)Cc2cc(NC(=O)Cc3ccccc3)ccc2O[C@@H]1CN(C)Cc1ccc(C(F)(F)F)cc1 |  | activity change, negative = inhibition ([2]; at 16 µM (top of the series)): 23.7% (inactive) |
